Data taken from patent US10035801B2, “Pyrazolo compounds and uses thereof” (CONSTELLATION PHARMACEUTICALS, INC., priority 2013, dated 2018).

molecular target: T1, KDM5A (Homo sapiens, UniProt P29375); test: KDM5 enzyme assay, KDM5A HTRF (Example 463); format: biochemical; conditions: not given
T1 construct: Full length KDM5A enzyme was expressed and purified inhouse; made in house
T1 sequence (P29375 whole entry): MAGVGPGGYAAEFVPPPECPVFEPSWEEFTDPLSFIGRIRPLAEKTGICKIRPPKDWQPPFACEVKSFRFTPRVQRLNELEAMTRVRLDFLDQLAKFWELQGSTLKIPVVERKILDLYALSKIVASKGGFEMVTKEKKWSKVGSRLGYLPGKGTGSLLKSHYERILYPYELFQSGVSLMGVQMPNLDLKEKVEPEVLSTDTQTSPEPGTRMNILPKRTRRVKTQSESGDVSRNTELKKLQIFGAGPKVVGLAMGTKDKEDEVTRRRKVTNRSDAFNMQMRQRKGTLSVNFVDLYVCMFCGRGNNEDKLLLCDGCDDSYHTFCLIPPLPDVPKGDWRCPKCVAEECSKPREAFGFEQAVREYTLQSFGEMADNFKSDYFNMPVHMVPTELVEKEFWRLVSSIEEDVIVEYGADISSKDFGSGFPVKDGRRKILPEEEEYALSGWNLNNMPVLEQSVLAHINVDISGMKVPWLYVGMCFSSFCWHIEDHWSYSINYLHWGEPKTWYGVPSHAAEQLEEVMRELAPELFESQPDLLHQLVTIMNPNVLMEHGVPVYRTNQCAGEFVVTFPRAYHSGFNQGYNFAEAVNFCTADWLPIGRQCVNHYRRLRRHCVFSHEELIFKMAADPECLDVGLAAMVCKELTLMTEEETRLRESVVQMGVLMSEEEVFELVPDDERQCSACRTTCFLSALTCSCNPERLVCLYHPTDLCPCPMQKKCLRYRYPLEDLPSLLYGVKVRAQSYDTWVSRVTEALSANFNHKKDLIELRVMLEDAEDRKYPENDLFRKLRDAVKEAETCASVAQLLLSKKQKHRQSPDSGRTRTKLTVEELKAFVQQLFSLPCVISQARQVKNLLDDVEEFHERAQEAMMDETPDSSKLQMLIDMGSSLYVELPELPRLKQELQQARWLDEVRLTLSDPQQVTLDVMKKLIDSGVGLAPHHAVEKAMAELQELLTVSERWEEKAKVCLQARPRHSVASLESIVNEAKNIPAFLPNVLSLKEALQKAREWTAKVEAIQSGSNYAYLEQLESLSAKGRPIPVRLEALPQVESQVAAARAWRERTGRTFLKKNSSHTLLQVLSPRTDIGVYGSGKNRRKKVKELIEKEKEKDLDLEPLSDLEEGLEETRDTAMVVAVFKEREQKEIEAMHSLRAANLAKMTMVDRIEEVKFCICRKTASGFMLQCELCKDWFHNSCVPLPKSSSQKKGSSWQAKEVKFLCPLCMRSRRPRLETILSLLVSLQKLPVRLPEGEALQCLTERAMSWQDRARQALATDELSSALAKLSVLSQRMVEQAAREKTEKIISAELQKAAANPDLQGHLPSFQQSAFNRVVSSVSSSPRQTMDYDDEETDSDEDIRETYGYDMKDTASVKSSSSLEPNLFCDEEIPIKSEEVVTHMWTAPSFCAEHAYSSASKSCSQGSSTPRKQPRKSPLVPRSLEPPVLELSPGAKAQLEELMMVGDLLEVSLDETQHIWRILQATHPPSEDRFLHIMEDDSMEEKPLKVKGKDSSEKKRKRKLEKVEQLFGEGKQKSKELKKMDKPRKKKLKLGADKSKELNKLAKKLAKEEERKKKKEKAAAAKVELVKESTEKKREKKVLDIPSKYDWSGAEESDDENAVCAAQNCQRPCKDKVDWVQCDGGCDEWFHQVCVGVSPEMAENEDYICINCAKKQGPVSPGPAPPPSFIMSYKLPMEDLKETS

Structure (SMILES)	IC50 [nM]
C=C(C)c1c(-c2ccccc2)[nH]c2c(C#N)cnn2c1=O [Example 224]	25
CC(C)c1c(-c2ccc(OC(F)(F)F)cc2)[nH]c2c(C#N)cnn2c1=O [Example 257]	37
COc1cc(-c2[nH]c3c(C#N)cnn3c(=O)c2C(C)C)ccn1 [Example 277]	32

same assay, conditions: compounds of Examples 1-432; read-out: Example 463 Assay KDM5A HTRF IC50

IC50 [nM]	Structure (SMILES)
18	CC(C)c1c(NC(=O)C2CC2)[nH]c2c(C#N)cnn2c1=O [Example 213]
26	CC(C)c1c(NC(=O)c2ccccc2)[nH]c2c(C#N)cnn2c1=O [Example 214]
2100	Cc1[nH]c2c(C#N)cnn2c(=O)c1-c1ccccc1 [Example 217]
21000	Cc1[nH]c2c(C#N)cnn2c(=O)c1Sc1ccccc1Cl [Example 220]
12	N#Cc1cnn2c(=O)c(CCF)c(-c3ccccc3)[nH]c12 [Example 222]
9600	Cn1c(-c2ccccc2)c(-c2ccncc2)c(=O)n2ncc(C#N)c12 [Example 229]
20	CCc1c(-c2cccc(NC(=O)OC(C)(C)C)c2)[nH]c2c(C#N)cnn2c1=O [Example 233]
15	N#Cc1cnn2c(=O)c(I)c(-c3ccccc3)[nH]c12 [Example 234]
78	CC(=O)N1CC=C(c2[nH]c3c(C#N)cnn3c(=O)c2C(C)C)CC1 [Example 237]
50	CC(C)c1c(C2=CCN(C)CC2)[nH]c2c(C#N)cnn2c1=O [Example 240]
13	Cc1nc(Cn2cc(-c3[nH]c4c(C#N)cnn4c(=O)c3C(C)C)cn2)cs1 [Example 241]
21	CC(C)c1c(-c2ccc(S(C)(=O)=O)cc2F)[nH]c2c(C#N)cnn2c1=O [Example 244]
46	CCC(C)(C)n1cc(-c2[nH]c3c(C#N)cnn3c(=O)c2C(C)C)cn1 [Example 245]
15	CC(C)c1c(-c2cccc(CCN3CCOCC3)c2)[nH]c2c(C#N)cnn2c1=O [Example 247]
5700	CC(=O)NCCCCc1c(-c2ccccc2)[nH]c2c(C#N)cnn2c1=O [Example 250]
8000	CC(=O)NCCCc1c(-c2ccccc2)[nH]c2c(C#N)cnn2c1=O [Example 251]
13	CC(C)c1c(-c2cnn(C(C)c3cscn3)c2)[nH]c2c(C#N)cnn2c1=O (stereo not shown) [Example 253]
33	CC(C)c1c(-c2cnn(C3CCOCC3)c2)[nH]c2c(C#N)cnn2c1=O [Example 254]
35	COc1cc(-c2[nH]c3c(C#N)cnn3c(=O)c2C(C)C)ccc1C(F)(F)F [Example 255]
15	COC(=O)c1cc(-c2[nH]c3c(C#N)cnn3c(=O)c2C(C)C)ccc1Cl [Example 256]
43	CC(C)c1c(-c2ccc(C3CC3)c(C(F)(F)F)c2)[nH]c2c(C#N)cnn2c1=O [Example 259]
28	CC(C)c1c(-c2ccc(-c3ccccc3)cc2)[nH]c2c(C#N)cnn2c1=O [Example 263]
21	CC(C)c1c(-c2cc(F)cc(Cl)c2)[nH]c2c(C#N)cnn2c1=O [Example 264]
40	CC(C)c1c(-c2cc(C(F)(F)F)cc(C(F)(F)F)c2)[nH]c2c(C#N)cnn2c1=O [Example 265]

IC50 [nM]	Structure (SMILES)
9.8	CC(C)c1c(-c2cccc(C(N)=O)c2)[nH]c2c(C#N)cnn2c1=O [Example 267]
23	CC(C)c1c(-c2ccc(OCC3CC3)cc2)[nH]c2c(C#N)cnn2c1=O [Example 268]
19	CC(C)c1c(-c2cc(F)cc(NC(=O)OCc3ccccc3)c2)[nH]c2c(C#N)cnn2c1=O [Example 269]
23	CNS(=O)(=O)c1cccc(-c2[nH]c3c(C#N)cnn3c(=O)c2C(C)C)c1 [Example 273]
73	CC(C)c1c(-c2ccc(C(C)(C)O)cc2)[nH]c2c(C#N)cnn2c1=O [Example 274]
34	CC(C)c1c(-c2ccnc(C(F)(F)F)c2)[nH]c2c(C#N)cnn2c1=O [Example 275]
35	CC(C)c1c(-c2ccc(Oc3ccccc3)nc2)[nH]c2c(C#N)cnn2c1=O [Example 276]
76	Cc1nc(-c2ccccc2)sc1-c1[nH]c2c(C#N)cnn2c(=O)c1C(C)C [Example 278]
8	CC(C)c1c(-c2cccc(CC(N)=O)c2)[nH]c2c(C#N)cnn2c1=O [Example 282]
37	CC(C)c1c(-c2ccc(-c3ccccc3)nc2)[nH]c2c(C#N)cnn2c1=O [Example 283]
23	CC(C)c1c(-c2cnn(C3CCCOC3)c2)[nH]c2c(C#N)cnn2c1=O (stereo not shown) [Example 285]
22	CCOCCn1cc(-c2[nH]c3c(C#N)cnn3c(=O)c2C(C)C)cn1 [Example 287]
12	CC(=O)N1CC=C(c2[nH]c3c(C#N)cnn3c(=O)c2C(C)C)C1 [Example 288]
35	CC(=O)N1CCC=C(c2[nH]c3c(C#N)cnn3c(=O)c2C(C)C)C1 [Example 289]
55	CCC(=O)N1CC=C(c2[nH]c3c(C#N)cnn3c(=O)c2C(C)C)C1 [Example 291]
47	C=CC(=O)N1CCC=C(c2[nH]c3c(C#N)cnn3c(=O)c2C(C)C)C1 [Example 296]
28	C=CC(=O)N1CC=C(c2[nH]c3c(C#N)cnn3c(=O)c2C(C)C)C1 [Example 297]
24	Cc1cc(-c2[nH]c3c(C#N)cnn3c(=O)c2C(C)C)cc(C)c1Cl [Example 298]
25	Cc1cc(-c2[nH]c3c(C#N)cnn3c(=O)c2C(C)C)ccc1C#N [Example 299]
18	CC(C)c1c(-c2ccc3c(c2)CCC3=O)[nH]c2c(C#N)cnn2c1=O [Example 300]
170	CC(C)c1c(-c2ccc(C(F)(F)F)c(C(F)(F)F)c2)[nH]c2c(C#N)cnn2c1=O [Example 301]
52	Cc1cc(-c2[nH]c3c(C#N)cnn3c(=O)c2C(C)C)ccc1C(F)(F)F [Example 302]
15	CC(C)c1c(-c2cnn(Cc3cccc4ccsc34)c2)[nH]c2c(C#N)cnn2c1=O [Example 303]

Second part, the compound before the results:

Structure (SMILES)	IC50 [nM]
N#Cc1cnn2c(=O)cc(-c3cccc(Br)c3)[nH]c12 [Example 215]	410
N#Cc1cnn2c(=O)c(Cl)c(-c3ccccc3)[nH]c12 [Example 216]	20
Cn1c(-c2ccccc2)c(Br)c(=O)n2ncc(C#N)c12 [Example 218]	8000
Cn1c(-c2ccccc2)c(Cl)c(=O)n2ncc(C#N)c12 [Example 219]	4300
Cc1c(-c2ccccc2)c(=O)n2ncc(C#N)c2n1C [Example 221]	25000
C=CCc1c(-c2ccccc2)[nH]c2c(C#N)cnn2c1=O [Example 223]	9
CC#CCc1c(-c2ccccc2)[nH]c2c(C#N)cnn2c1=O [Example 225]	5400
Cn1c(-c2ccccc2)c(C2CC2)c(=O)n2ncc(C#N)c12 [Example 226]	370
CCc1c(-c2cccc(-c3cnn(C)c3)c2)[nH]c2c(C#N)cnn2c1=O [Example 227]	13
CCc1c(-c2cccc(-c3cnn(C(C)C)c3)c2)[nH]c2c(C#N)cnn2c1=O [Example 228]	23
CCc1c(-c2ccc(-c3ccccc3)cc2)[nH]c2c(C#N)cnn2c1=O [Example 230]	9
C/C=C/Cc1c(-c2ccccc2)[nH]c2c(C#N)cnn2c1=O [Example 231]	170
CCc1c(-c2ccc(Nc3ccc(F)cc3)cc2)[nH]c2c(C#N)cnn2c1=O [Example 232]	19
C#CC(C)c1c(-c2ccccc2)[nH]c2c(C#N)cnn2c1=O (stereo not shown) [Example 235]	14
CCC(C)c1c(-c2ccccc2)[nH]c2c(C#N)cnn2c1=O (stereo not shown) [Example 236]	18
CCC(=O)N1CC=C(c2[nH]c3c(C#N)cnn3c(=O)c2C(C)C)CC1 [Example 238]	49
C=CC(=O)N1CC=C(c2[nH]c3c(C#N)cnn3c(=O)c2C(C)C)CC1 [Example 239]	21
CC(=O)NCCn1cc(-c2[nH]c3c(C#N)cnn3c(=O)c2C(C)C)cn1 [Example 242]	27
CC(C)c1c(-c2cc(Cl)cc(Cl)c2)[nH]c2c(C#N)cnn2c1=O [Example 243]	20

Structure (SMILES)	IC50 [nM]
CC(C)c1c(-c2ccc(F)c(Cl)c2)[nH]c2c(C#N)cnn2c1=O [Example 246]	22
CC(C)c1c(-c2cccc(CCN(C)C)c2)[nH]c2c(C#N)cnn2c1=O [Example 248]	69
CC(CO)c1c(-c2ccccc2)[nH]c2c(C#N)cnn2c1=O (stereo not shown) [Example 249]	30
N#Cc1cnn2c(=O)c(CCCCN)c(-c3ccccc3)[nH]c12 [Example 252]	7630
Cc1cc(-c2[nH]c3c(C#N)cnn3c(=O)c2C(C)C)ccc1OC(F)(F)F [Example 258]	44
CC(C)c1c(-c2ccc3c(c2)CC(C)(C)O3)[nH]c2c(C#N)cnn2c1=O [Example 260]	36
COc1cc(OC)cc(-c2[nH]c3c(C#N)cnn3c(=O)c2C(C)C)c1 [Example 261]	31
CC(C)c1c(-c2ccc(F)c(F)c2)[nH]c2c(C#N)cnn2c1=O [Example 262]	21
COc1cc(F)cc(-c2[nH]c3c(C#N)cnn3c(=O)c2C(C)C)c1 [Example 266]	29
CC(C)c1c(-c2cccc(-n3cccn3)c2)[nH]c2c(C#N)cnn2c1=O [Example 270]	13
CC(C)c1c(-c2cnn(C3CCCC3O)c2)[nH]c2c(C#N)cnn2c1=O (stereo not shown) [Example 271]	24
CC(C)c1c(-c2cc(N)cc(C#N)c2)[nH]c2c(C#N)cnn2c1=O [Example 279]	24
CC(C)c1c(-c2cnn(C3CCOC3)c2)[nH]c2c(C#N)cnn2c1=O (stereo not shown) [Example 280]	15
CCNC(=O)c1cccc(-c2[nH]c3c(C#N)cnn3c(=O)c2C(C)C)c1 [Example 281]	32
COCC(C)n1cc(-c2[nH]c3c(C#N)cnn3c(=O)c2C(C)C)cn1 (stereo not shown) [Example 286]	30
CCC(=O)N1CCC=C(c2[nH]c3c(C#N)cnn3c(=O)c2C(C)C)C1 [Example 290]	39
CC(C)c1c(C2=CCNC2)[nH]c2c(C#N)cnn2c1=O [Example 293]	19
CC(C)c1c(C2=CCCNC2)[nH]c2c(C#N)cnn2c1=O [Example 294]	62
CC(C)c1c(C2=CCCN(C)C2)[nH]c2c(C#N)cnn2c1=O [Example 295]	39
